The target in one assay is CDK2 (Homo sapiens, UniProt P24941). Kind of assay: CDK2 inhibition. The assay is classed as biochemical.
The target in the next assay is HDAC 1 (Homo sapiens, UniProt Q13547). Kind of assay: HDAC 1 inhibition assay with about 3 hours enzyme/compound preincubation (fluorophore/quencher peptide substrate). Particulars: 3-hour preincubation of enzyme with compound; read-out: HDAC 1 inhibitory activity (IC50 [μM]) (3-hour preincubation). It counts as biochemical. As for the experimental part: HDAC inhibitory activity of the compound of Example 1 was measured by two types of assays in which HDAC 1 was used as a target molecule. The first assay was carried out without preincubation after addition of the enzyme. The test compound was suspended in and titrated in dmso. It was then spotted into a 384-well test plate. The enzyme, HDAC 1, was diluted in assay buffer containing 25 mM Tris-HCl (pH 8.0), 137 mM NaCl, 2.7 mM KCl, and 0.01% Tween-20 and added to the pre-spotted compound. The peptide substrate containing a fluorophore/quencher pair was diluted in the same assay buffer and added to the compound/enzyme mix initiating the reaction. The reaction incubated at room temperature for about 45 minutes. A concentrated developer solution was diluted in the assay buffer, and added to the reaction. The reaction was incubated at room temperature for about 15 minutes and relative fluorescence was read on an instrument reader.
The second assay is similar to the first assay described above, except that preincubation is carried out for about 3 hours after the enzyme is introduced. The test compound was suspended in, and titrated in DMSO. It was then spotted into a 384-well test plate. The enzyme, HDAC 1, was diluted in the same assay buffer as used in the previous assay and added to the pre-spotted compound. The enzyme/compound mix was incubated at room temperature for about 3 hours. The peptide substrate containing a fluorophore/quencher pair was diluted in the assay buffer and added to the compound/enzyme mix initiating the reaction. The reaction incubated at room temperature for 45 minutes. A concentrated developer solution was diluted in the assay buffer, and added to the reaction. The reaction was incubated at room temperature for about 15 minutes and relative fluorescence was read on an instrument reader.

Data on 23 molecules can be found in patent publication US8124764B2, “Fused heterocyclyc inhibitor compounds” (Gilead Sciences, Inc., priority 2008, dated 2012).

Broadly, the IC50 is the concentration needed to halve the response being measured.

Sequence of HDAC 1 (Q13547 whole entry, species assumed): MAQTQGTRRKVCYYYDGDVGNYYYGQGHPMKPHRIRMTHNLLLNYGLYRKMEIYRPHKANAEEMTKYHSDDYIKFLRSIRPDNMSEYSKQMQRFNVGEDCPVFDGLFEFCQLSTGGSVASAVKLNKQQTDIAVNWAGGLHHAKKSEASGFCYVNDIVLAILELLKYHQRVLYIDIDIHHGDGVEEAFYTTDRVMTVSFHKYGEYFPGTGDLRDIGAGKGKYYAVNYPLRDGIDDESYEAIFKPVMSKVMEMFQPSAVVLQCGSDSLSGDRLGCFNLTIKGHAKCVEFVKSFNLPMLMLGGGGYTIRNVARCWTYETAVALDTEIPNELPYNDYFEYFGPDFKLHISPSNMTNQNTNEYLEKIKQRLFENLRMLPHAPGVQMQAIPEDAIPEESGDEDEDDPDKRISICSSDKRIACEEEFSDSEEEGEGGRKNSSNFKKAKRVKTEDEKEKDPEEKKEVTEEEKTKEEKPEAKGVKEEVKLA

For `COCCNC(=O)c1ccc2nc(C)c(-c3ccnc(Nc4ccc(C(=O)Nc5ccccc5N)cc4)n3)n2c1` [Example 38, 3-(2-(4-(2-aminophenylcarbamoyl)phenylamino)pyrimidin-4-yl)-N-(2-methoxyethyl)-2-methylimidazo[1,2-a]pyridine-6-carboxamide], the IC50 came to 2.74 µM on CDK2 and 0.312 µM on HDAC 1.
Regarding `Cc1nc2ccc(C(=O)N3CCN(C)CC3)cn2c1-c1ccnc(Nc2ccc(C(=O)Nc3ccccc3N)cc2)n1` [Example 39, N-(2-Amino-phenyl)-4-{4-[2-methyl-6-(4-methyl-piperazine-1-carbonyl)-imidazo[1,2-a]pyridin-3-yl]-pyrimidin-2-ylamino}-benzamide], the IC50 against CDK2 turned out to be 7.94 µM; on HDAC 1, 0.563 µM.
In the same order, the values of `COc1ccn2c(-c3ccnc(Nc4ccc(C(=O)NO)cc4)n3)c(C(F)(F)F)nc2c1` [Example 49, N-Hydroxy-4-[4-(7-methoxy-2-trifluoromethyl-imidazo[1,2-a]pyridin-3-yl)-pyrimidin-2-ylamino]-benzamide] are 0.06 µM and 0.199 µM.
Take `Cc1nc2ccccn2c1-c1ccnc(Nc2ncc(C(=O)NO)cn2)c1` [Example 74, N-hydroxy-2-(4-(2-methylimidazo[1,2-a]pyridin-3-yl)pyridin-2-ylamino)pyrimidine-5-carboxamide]: the results for the IC50 against CDK2 and at HDAC 1 were 6.47 µM and 0.104 µM, respectively.
As for `Nc1ccccc1NC(=O)c1ccc(Nc2nccc(-c3c(C(F)(F)F)nc4ccccn34)n2)cc1` [Example 16, N-(2-Amino-phenyl)-4-[4-(2-trifluoromethyl-imidazo[1,2-a]pyridin-3-yl)-pyrimidin-2-ylamino]-benzamide], the IC50 worked out at 0.16 µM against CDK2 and 0.295 µM on HDAC 1.
For `Cc1nc2ccccn2c1-c1ccnc(Nc2ncc(C(=O)NO)s2)c1` [Example 73, N-hydroxy-2-(4-(2-methylimidazo[1,2-a]pyridin-3-yl)pyridin-2-ylamino)thiazole-5-carboxamide], the IC50 against CDK2 turned out to be 1.68 µM; at HDAC 1, 0.185 µM.
In the same order, the values of `Cc1nc2cnccn2c1-c1ccnc(Nc2ccc(C(=O)Nc3ccccc3N)cc2)n1` [Example 20, N-(2-Amino-phenyl)-4-[4-(2-methyl-imidazo[1,2-a]pyrazin-3-yl)-pyrimidin-2-ylamino]-benzamide] are 0.9 µM and 0.165 µM.
Turning to `Cc1nc2ccccn2c1-c1ccnc(Nc2cc(C(=O)NO)cs2)n1` [Example 60, N-hydroxy-5-(4-(2-methylimidazo[1,2-a]pyridin-3-yl)pyrimidin-2-ylamino)thiophene-3-carboxamide], the figures for the IC50 against CDK2 and on HDAC 1 were 0.03 µM and 0.164 µM, respectively.
Turning to `Cc1nc2ccccn2c1-c1ccnc(Nc2ccc(C(=O)NO)cc2)c1` [Example 53, N-Hydroxy-4-[4-(2-methyl-imidazo[1,2-a]pyridin-3-yl)-pyridin-2-ylamino]-benzamide], the IC50 at CDK2 is 3.6 µM; on HDAC 1, 0.021 µM.
In the same order, the values of `COC(=O)c1ccn2c(-c3ccnc(Nc4ccc(C(=O)Nc5ccccc5N)cc4)n3)c(C)nc2c1` [Example 26, Methyl 3-(2-(4-(2-aminophenylcarbamoyl)phenylamino)pyrimidin-4-yl)-2-methylimidazo[1,2-a]pyridine-7-carboxylate] are 0.53 µM and more than 10 µM.
As for `O=C(NO)c1ccc(Nc2nccc(-c3c(C(F)(F)F)nc4ccccn34)n2)cc1` [Example 15, N-Hydroxy-4-[4-(2-trifluoromethyl-imidazo[1,2-a]pyridin-3-yl)-pyrimidin-2-ylamino]-benzamide], the IC50 is 0.18 µM on CDK2 and 0.0818 µM on HDAC 1.
Consider `Cc1nc2cccnn2c1-c1ccnc(Nc2ccc(C(=O)Nc3ccccc3N)cc2)n1` [Example 18, N-(2-Amino-phenyl)-4-[4-(2-methyl-imidazo[1,2-b]pyridazin-3-yl)-pyrimidin-2-ylamino]-benzamide], for which the figures for the IC50 at CDK2 and at HDAC 1 were 0.59 µM and 0.0239 µM, respectively.
With `Cc1nc2ccccn2c1-c1ccnc(Nc2ccc(C(=O)NO)c(F)c2)n1` [Example 35, 2-Fluoro-N-hydroxy-4-[4-(2-methyl-imidazo[1,2-a]pyridin-3-yl)-pyrimidin-2-ylamino]-benzamide], the IC50 against CDK2 was 0.06 µM; on HDAC 1 it was 0.128 µM.
As to `Nc1ccccc1NC(=O)c1cccc(Nc2nccc(-c3cnc4ccccn34)n2)c1` [Example 8, N-(2-Amino-phenyl)-3-(4-imidazo[1,2-a]pyridin-3-yl-pyrimidin-2-ylamino)-benzamide], the figures for the IC50 against CDK2 and on HDAC 1 were 0.144 µM and more than 50 µM, respectively.
Regarding `Cc1nc2ccccn2c1-c1ccnc(Nc2ccc(C(=O)Nc3ccccc3N)cn2)c1` [Example 70, N-(2-aminophenyl)-6-(4-(2-methylimidazo[1,2-a]pyridin-3-yl)pyridin-2-ylamino)nicotinamide], the IC50 is 0.87 µM against CDK2 and 0.073 µM on HDAC 1.
`COc1ccn2c(-c3ccnc(Nc4ccc(C(=O)NO)cc4)n3)c(C)nc2c1` [Example 13, N-Hydroxy-4-[4-(7-methoxy-2-methyl-imidazo[1,2-a]pyridin-3-yl)-pyrimidin-2-ylamino]-benzamide]: the IC50 against CDK2 and at HDAC 1 was 0.04 µM in each case.
`Cc1nc2ccccn2c1-c1ccnc(Nc2ccc(C(=O)NO)cn2)n1` [Example 64, N-hydroxy-6-(4-(2-methylimidazo[1,2-a]pyridin-3-yl)pyrimidin-2-ylamino)nicotinamide]: the IC50 against CDK2 was 0.52 µM; at HDAC 1, 0.094 µM.
On to `Cc1nc2ccc(C(F)(F)F)cn2c1-c1ccnc(Nc2ccc(C(=O)NO)cc2)n1` [Example 11, N-Hydroxy-4-[4-(2-methyl-6-trifluoromethyl-imidazo[1,2-a]pyridin-3-yl)-pyrimidin-2-ylamino]-benzamide], for which the IC50 at CDK2 was 0.07 µM; on HDAC 1 it was 0.089 µM.
As to `Nc1ccccc1NC(=O)c1ccc(Nc2cc(-c3cnc4ccccn34)ncn2)cc1` [Example 55, N-(2-Amino-phenyl)-4-(6-imidazo[1,2-a]pyridin-3-yl-pyrimidin-4-ylamino)-benzamide], the IC50 on CDK2 was more than 40 µM; at HDAC 1, 0.2 µM.
`Cc1nc2cccnn2c1-c1ccnc(Nc2ccc(C(=O)NO)cc2)n1` [Example 17, N-Hydroxy-4-[4-(2-methyl-imidazo[1,2-b]pyridazin-3-yl)-pyrimidin-2-ylamino]-benzamide]: the IC50 on CDK2 is 0.034 µM; at HDAC 1 it was 0.273 µM.
As to `Cc1nc2cc(OCCN(C)C)ccn2c1-c1ccnc(Nc2ccc(C(=O)Nc3ccccc3N)cc2)n1` [Example 30, N-(2-Amino-phenyl)-4-{4-[7-(2-dimethylamino-ethoxy)-2-methyl-imidazo[1,2-a]pyridin-3-yl]-pyrimidin-2-ylamino}-benzamide], the IC50 on CDK2 was 1.07 µM; at HDAC 1 it was 0.118 µM.
In the same order, the values of `COc1ccn2c(-c3ccnc(Nc4ccc(C(=O)Nc5ccccc5N)cc4)n3)c(C)nc2c1` [Example 14, N-(2-Amino-phenyl)-4-[4-(7-methoxy-2-methyl-imidazo[1,2-a]pyridin-3-yl)-pyrimidin-2-ylamino]-benzamide] are 0.06 µM and approximately 0.09 µM.
For `Cc1nc2ccccn2c1-c1ccnc(Nc2ccc(C(=O)Nc3ccccc3N)cc2F)n1` [Example 34, N-(2-Amino-phenyl)-3-fluoro-4-[4-(2-methyl-imidazo[1,2-a]pyridin-3-yl)-pyrimidin-2-ylamino]-benzamide], the IC50 on CDK2 stood at 0.86 µM; on HDAC 1, 1.56 µM.
